Results as given in patent US7714146B2, “Azulene-oxindole compounds as multiple-kinase inhibitors and useful as anticancer agents” (Industrial Technology Research Institute, priority 2006, dated 2010).

Columns and labels:
Assay type in all cases: biochemical
[1] = biological target: T1, human EGFR (His672-Ala1210) (Homo sapiens, UniProt P00533); assay: EGFR kinase assay (HTScan kit, DELFIA); conditions: for inhibition at 0.1 µM: compound at 0.1 μM, read-out: EGFR 0.1 μM, % of inhibition relative to control
T1 construct: human EGFR (His672-Ala1210); GST (N); purchased Cell Signaling Technology; host or cells: baculovirus expression system
T1 sequence (P00533 672-1210): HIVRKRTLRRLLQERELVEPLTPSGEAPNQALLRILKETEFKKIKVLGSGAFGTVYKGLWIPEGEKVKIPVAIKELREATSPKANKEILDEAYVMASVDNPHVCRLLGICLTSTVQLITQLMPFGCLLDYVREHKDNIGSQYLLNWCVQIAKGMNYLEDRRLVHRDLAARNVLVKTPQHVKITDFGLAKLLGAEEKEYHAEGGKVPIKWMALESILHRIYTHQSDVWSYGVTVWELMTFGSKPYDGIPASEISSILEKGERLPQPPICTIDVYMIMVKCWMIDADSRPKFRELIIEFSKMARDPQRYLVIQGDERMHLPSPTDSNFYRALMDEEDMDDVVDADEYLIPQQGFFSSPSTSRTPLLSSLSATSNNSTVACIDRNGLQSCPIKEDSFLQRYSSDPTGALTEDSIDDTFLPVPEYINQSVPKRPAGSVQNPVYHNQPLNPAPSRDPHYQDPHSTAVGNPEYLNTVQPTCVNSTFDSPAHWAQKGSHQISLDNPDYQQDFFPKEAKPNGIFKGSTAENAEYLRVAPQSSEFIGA
Protocol: (§1) Compounds 1-100 were treated for their efficacy in inhibiting activities of FLT-3, c-KIT, KDR/Flk-1, PDGFR-beta, EGFR, and PKC kinases by biochemical DELFIA (Dissociation Enhanced Lanthanide FIA) assays according to the procedure described below. The assays were conducted by, Division of Cell Engineering, Biomedical Engineering Research Laboratories, Industrial Technology Research Institute, Bldg. 53, 195, sec. 4, Chung Hsing Rd. Chutung, Hsinchu, Taiwan 310, R.O.C.
(§2) The EGFR assay was conducted following the protocol described in Protocol for HTScan® EGFR Kinase Assay Kit (Cell Signaling Technology®). The assay was conducted under the following conditions: EGFR source: The GST-kinase fusion protein was produced using a baculovirus expression system with a construct expressing human EGFR (His672-Ala1210) (GenBank Accession No. NM_005228) with an amino-terminal GST tag, substrate: 1.5 μM This biotinylated peptide contains the residues surrounding Tyr-66 of PTP1B, vehicle: 1% DMSO, pre-incubation time/temperature: 5 minutes at room temperature, incubation time/temperature: 30 minutes at room temperature, incubation buffer: 60 mM HEPES pH 7.5, 5 mM MgCl2, 5 mM MnCl2, 3 μM Na3VO4, 1.25 mM DTT, 20 μM ATP, and quantitative method: DELFIA® Assay.

[2] = biological target: T2, human FLT-3 (Arg571-Ser993) (Homo sapiens, UniProt P36888); assay: FLT-3 kinase assay (HTScan kit, DELFIA); conditions: for inhibition at 1 µM: compound at 1 μM, read-out: FLT-3 1 μM, % of inhibition relative to control; for inhibition at 0.1 µM: compound at 0.1 μM, read-out: FLT-3 0.1 μM, % of inhibition relative to control; for IC50: read-out: FLT-3 kinase inhibition (IC50)
T2 construct: human FLT-3 (Arg571-Ser993); GST (N); purchased Cell Signaling Technology; host or cells: baculovirus expression system
T2 sequence (P36888 571-993): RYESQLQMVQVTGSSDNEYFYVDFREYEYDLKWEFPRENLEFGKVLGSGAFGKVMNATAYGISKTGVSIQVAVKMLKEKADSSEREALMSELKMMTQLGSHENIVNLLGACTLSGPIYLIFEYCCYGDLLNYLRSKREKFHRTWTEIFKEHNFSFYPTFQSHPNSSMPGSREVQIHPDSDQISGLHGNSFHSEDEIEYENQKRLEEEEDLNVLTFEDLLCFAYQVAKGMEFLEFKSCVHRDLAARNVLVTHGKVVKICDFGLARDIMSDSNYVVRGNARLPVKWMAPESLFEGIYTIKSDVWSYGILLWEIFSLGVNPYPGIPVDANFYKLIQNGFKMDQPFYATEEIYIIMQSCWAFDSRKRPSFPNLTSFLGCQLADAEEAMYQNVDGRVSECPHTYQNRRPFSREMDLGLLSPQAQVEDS
Protocol: as §1
as §2, with “FLT-3” for “EGFR”, “FLT-3 (Arg571-Ser993)” for “EGFR (His672-Ala1210)”, “accession” for “Accession”, “NM_004119)” for “NM_005228)”, “Gastrin Precursor Biotinylated Peptide (with Tyr87 as phosphorylation site),” for “This biotinylated peptide contains the residues surrounding Tyr-66 of PTP1B,”

[3] = biological target: T3, human VEGFR-2 (Val789-Val1356) (Homo sapiens, UniProt P35968); assay: KDR kinase assay (HTScan VEGFR-2 kit, DELFIA); conditions: for inhibition at 1 µM: compound at 1 μM, read-out: KDR 1 μM, % of inhibition relative to control; for inhibition at 0.1 µM: compound at 0.1 μM, read-out: KDR 0.1 μM, % of inhibition relative to control
T3 construct: human VEGFR-2 (Val789-Val1356); GST (N); purchased Cell Signaling Technology; host or cells: baculovirus expression system
T3 sequence (P35968 789-1356): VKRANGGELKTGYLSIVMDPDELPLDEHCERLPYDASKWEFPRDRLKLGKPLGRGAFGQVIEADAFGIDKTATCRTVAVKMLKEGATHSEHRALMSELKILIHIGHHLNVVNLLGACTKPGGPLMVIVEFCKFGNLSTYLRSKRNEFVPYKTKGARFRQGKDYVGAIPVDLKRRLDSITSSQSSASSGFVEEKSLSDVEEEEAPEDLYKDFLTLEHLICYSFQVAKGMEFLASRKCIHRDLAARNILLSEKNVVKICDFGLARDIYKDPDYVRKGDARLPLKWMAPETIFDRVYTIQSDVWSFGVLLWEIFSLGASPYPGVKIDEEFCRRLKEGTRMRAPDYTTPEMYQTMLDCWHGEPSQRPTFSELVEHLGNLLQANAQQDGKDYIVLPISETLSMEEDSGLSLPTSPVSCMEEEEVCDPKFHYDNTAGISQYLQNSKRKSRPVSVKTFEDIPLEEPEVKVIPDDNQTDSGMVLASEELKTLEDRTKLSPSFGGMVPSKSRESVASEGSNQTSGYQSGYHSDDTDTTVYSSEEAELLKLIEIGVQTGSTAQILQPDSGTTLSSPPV
Protocol: as §1
The KDR assay was conducted following the protocol described in Protocol for HTScan® VEGFR-2 Kinase Assay Kit (Cell Signaling Technology®). The assay was conducted under the following conditions: KDR source: The GST-Kinase fusion protein was produced using a baculovirus expression system with a construct expressing human VEGFR-2 (Val789-Val1356) (GenBank Accession No. NM_002253) with an amino-terminal GST tag, substrate: 1.5 μM Gastrin Precursor Biotinylated Peptide (with Tyr87 as phosphorylation site), vehicle: 1% DMSO, pre-incubation time/temperature: 5 minutes at room temperature, incubation time/temperature: 30 minutes at room temperature, incubation buffer: 60 mM HEPES pH 7.5, 5 mM MgCl2, 5 mM MnCl2, 3 μM Na3VO4, 1.25 mM DTT, 20 μM ATP, and quantitative method: DELFIA® Assay.

[4] = biological target: T4, human c-KIT (Thr544-Val976) (Homo sapiens, UniProt P10721); assay: c-KIT kinase assay (HTScan kit, DELFIA); conditions: for inhibition at 0.1 µM: compound at 0.1 μM, read-out: c-KIT 0.1 μM, % of inhibition relative to control; for inhibition at 1 µM: compound at 1 μM, read-out: c-KIT 1 μM, % of inhibition relative to control; for IC50: read-out: c-KIT kinase inhibition (IC50)
T4 construct: human c-KIT (Thr544-Val976); GST (N); purchased Cell Signaling Technology; host or cells: baculovirus expression system
T4 sequence (P10721 544-976): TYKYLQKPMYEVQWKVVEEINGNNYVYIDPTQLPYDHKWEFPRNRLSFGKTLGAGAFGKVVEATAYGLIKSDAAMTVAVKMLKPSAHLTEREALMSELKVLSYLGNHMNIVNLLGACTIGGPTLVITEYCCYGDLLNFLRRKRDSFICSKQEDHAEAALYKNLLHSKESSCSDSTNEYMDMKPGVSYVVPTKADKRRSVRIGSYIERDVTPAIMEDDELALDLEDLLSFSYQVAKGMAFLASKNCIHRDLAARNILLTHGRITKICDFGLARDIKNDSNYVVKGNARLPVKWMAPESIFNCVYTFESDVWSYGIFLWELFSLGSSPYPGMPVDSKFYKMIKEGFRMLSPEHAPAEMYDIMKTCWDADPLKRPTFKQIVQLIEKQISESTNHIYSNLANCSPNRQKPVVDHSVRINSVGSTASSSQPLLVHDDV
Protocol: as §1
as §2, with “c-KIT” for “EGFR”, “GST-c-KIT” for “GST-kinase”, “c-KIT (Thr544-Val976)” for “EGFR (His672-Ala1210) (GenBank Accession No. NM_005228)”, “Tyr-996” for “Tyr-66”, “KDR,” for “PTP1B,”

| SMILES | inhibition at 0.1 µM [1] | inhibition at 1 µM [2] | inhibition at 1 µM ([1]; compound at 1 μM, read-out: EGFR 1 μM, % of inhibition relative to control) | inhibition at 1 µM [3] | inhibition at 0.1 µM [4] | inhibition at 1 µM [4] | inhibition at 0.1 µM [2] | IC50 [4] | IC50 [2] | inhibition at 0.1 µM [3] |
| --- | --- | --- | --- | --- | --- | --- | --- | --- | --- | --- |
| COc1ccc2c(c1)NC(=O)/C2=C\c1ccc2cccccc1-2 [Compound 31, 3-Azulen-1-ylmethylene-6-methoxy-1,3-dihydro-indol-2-one] | 0.2% | 14.9% | – | – | – | – | – | – | – | – |
| CN(C)c1nc2cccccc-2c1/C=C1/C(=O)Nc2ccccc21 [Compound 35, 3-(2-Dimethylamino-cyclohepta[b]pyrrol-3-ylmethylene)-1,3-dihydro-indol-2-one, with propan-2-ol] | 9.5% | – | 12.1% | 20.3% | – | – | – | – | – | – |
| CNS(=O)(=O)c1ccc2c(c1)/C(=C\c1cc(C)c3c(OCCCN(C)C)ccccc1-3)C(=O)N2 [Compound 88, 3-[4-(3-Dimethylamino-propoxy)-3-methyl-azulen-1-ylmethylene]-2-oxo-2,3-dihydro-1H-indole-5-sulfonic acid methylamide] | – | 47.3% | – | 16.8% | 19.3% | 19.3% | 24.2% | – | – | – |
| CCN(CC)CCCOc1ccccc2c(C=C3C(=O)Nc4ccc(F)cc43)cc(C)c1-2 [Compound 90, 3-[4-(3-Diethylamino-propoxy)-3-methyl-azulen-1-ylmethylene]-5-fluoro-1,3-dihydro-indol-2-one] | – | 85.5% | – | 32.8% | 83.2% | 83.2% | 33.9% | 0.0779 µM | 0.0101 µM | – |
| Cc1cc(C=C2C(=O)Nc3cc(F)ccc32)c2ccccc(OCCCN(C)C)c1-2 [Compound 91, 3-[4-(3-Dimethylamino-propoxy)-3-methyl-azulen-1-ylmethylene]-6-fluoro-1,3-dihydro-indol-2-one] | – | 52.4% | – | 9.4% | 56.5% | 56.5% | 15.2% | – | – | 1.1% |
| Cc1cc(C=C2C(=O)Nc3cc(C(F)(F)F)ccc32)c2ccccc(OCCCN(C)C)c1-2 [Compound 94, 3-[4-(3-Dimethylamino-propoxy)-3-methyl-azulen-1-ylmethylene]-6-trifluoromethyl-1,3-dihydro-indol-2-one] | – | 14.4% | – | 52.4% | 47.6% | 47.6% | 6.5% | – | – | 35.8% |

Second part, the molecule after the results:

| inhibition at 0.1 µM [1] | inhibition at 1 µM [2] | inhibition at 1 µM ([1]; compound at 1 μM, read-out: EGFR 1 μM, % of inhibition relative to control) | inhibition at 1 µM [3] | inhibition at 0.1 µM [4] | inhibition at 1 µM [4] | inhibition at 0.1 µM [2] | IC50 [4] | IC50 [2] | inhibition at 0.1 µM [3] | SMILES |
| --- | --- | --- | --- | --- | --- | --- | --- | --- | --- | --- |
| – | 98.4% | – | 93.6% | 65.1% | 65.1% | 70.9% | 0.158 µM | 0.0093 µM | 35.5% | Cc1cc(/C=C2\C(=O)Nc3ccc(F)cc32)c2ccccc(OCCCN(C)C)c1-2 [Compound 95, 3-[4-(3-Dimethylamino-propoxy)-3-methyl-azulen-1-ylmethylene]-5-fluoro-1,3-dihydro-indol-2-one] |
| – | 97.2% | – | 89.8% | 58% | 58% | 68.9% | – | – | 29.3% | Cc1cc(C=C2C(=O)Nc3ccc(F)cc32)c2ccccc(OCCCN3CCN(C)CC3)c1-2 [Compound 96, 5-Fluoro-3-{3-methyl-4-[3-(4-methyl-piperazin-1-yl)-propoxy]-azulen-1-ylmethylene}-1,3-dihydro-indol-2-one] |
| – | 23.9% | – | 41.8% | 30.6% | 30.6% | 19.1% | – | – | 30.5% | CCOC(=O)N1CCC(Nc2ccc3c(c2)NC(=O)/C3=C/c2cc(C)c3c(OCCCN(C)C)ccccc2-3)CC1 [Compound 97, 4-{3-[4-(3-Dimethylamino-propoxy)-3-methyl-azulen-1-ylmethylene]-2-oxo-2,3-dihydro-1H-indol-6-ylamino}-piperidine-1-carboxylic acid ethyl ester] |
| – | 85.4% | – | 80.3% | 60.4% | 60.4% | 46.1% | – | – | 38.6% | Cc1cc(C=C2C(=O)Nc3ccccc32)c2ccccc(OCCCN(C)C)c1-2 [Compound 98, 3-[4-(3-Dimethylamino-propoxy)-3-methyl-azulen-1-ylmethylene]-1,3-dihydro-indol-2-one] |
| – | 59.4% | – | 73.9% | 34.4% | 34.4% | 7.3% | – | – | 28.7% | Cc1cc(C=C2C(=O)Nc3c(F)cccc32)c2ccccc(OCCCN(C)C)c1-2 [Compound 99, 3-[4-(3-Dimethylamino-propoxy)-3-methyl-azulen-1-ylmethylene]-7-fluoro-1,3-dihydro-indol-2-one] |
| – | 89.1% | – | 73.2% | 48.1% | 48.1% | 64.9% | – | – | 33.3% | Cc1cc(C=C2C(=O)Nc3ccc(C(F)(F)F)cc32)c2ccccc(OCCCN(C)C)c1-2 [Compound 100, 3-[4-(3-Dimethylamino-propoxy)-3-methyl-azulen-1-ylmethylene]-5-trifluoromethyl-1,3-dihydro-indol-2-one] |
| – | 44.8% | – | 88% | 42.5% | 57.4% | 14.6% | – | – | 30.1% | Cc1cc(C=C2C(=O)Nc3ncccc32)c2ccccc(OCCCN(C)C)c1-2 [Compound 104, 3-(((3aZ,5Z,7E)-8-(3-(dimethylamino)propoxy)-1-methylazulen-3-yl)methylene)-1H-pyrrolo[2,3-b]pyridin-2(3H)-one] |
